Assay results: patent publication US9266922B2, “Antigen peptide and uses thereof” (priority 2011, dated 2016)
Read-outs that look alike come from different tables or passages of the source. Residues, ends and D or L forms follow the SMILES beside them.

How the values were obtained:
HLA-A*0201 [1] = target: T1, HLA-A*0201 (Homo sapiens, UniProt P04439, D140Y/D185E/D98H/E176V/E277Q/G131W/G231S/I119V/I121R/I166T/I218V/L300P/L318F/N151K/N90K/P208A/P217A/Q86G/Q94H/R138H/R169H/T345S); experiment: iTOPIA EDS MHC peptide binding assay; conditions: HLA-A*0201 monomer, relative to positive control peptide, 21° C. for 18 h
Text: MHC peptide binding assay using iTOPIA EDS
Microtiter 96 well plates containing HLA class I MHC monomer loaded with the human β2-microglobulin and a “placeholder” peptide were used to evaluate peptide binding, affinity, and off-rate.
The 502 nectin4 nonapeptides were first evaluated for their ability to bind to each MHC molecule in the peptide binding assay. In this assay, the placeholder peptides were stripped from the MHC class I monomer complexes coated on plastic, which leaves the MHC class I heavy chain available as a binding partner for candidate peptides in the presence of human β2-microglobulin.
Peptide binding was performed at 21° C. for 18 h. Revelation was done using an anti HLA-ABC-FITC mAb that binds to refolded MHC complex conformation. The relative fluorescent intensity was read using a fluorimeter (Molecular Devices, SpectraMax Gemini, Sunnyvale, Calif., USA).
Peptides with a binding>30% of the positive control peptide were selected as “binder” and subsequently analyzed for affinity (ED50) and off-rate (T1/2).

[2] = target: T2, HLA A*0201 on CEM.T2 cell line (Homo sapiens, UniProt P04439, D140Y/D185E/D98H/E176V/E277Q/G131W/G231S/I119V/I121R/I166T/I218V/L300P/L318F/N151K/N90K/P208A/P217A/Q86G/Q94H/R138H/R169H/T345S); experiment: Cellular dissociation assay on CEM.T2 cells; format: cell-based; conditions: after Brefeldin A 1 h and 3 h in serum-free RPMI at 37° C. (4 h)
T2 construct: This cell line expresses HLA A*0201 but is deficient for TAP transporter; endogenous in cells; host or cells: CEM.T2 (T2) cell line
Protocol: Cellular Dissociation Assay
After HLA-A2*0201 stabilization with peptides at 37° C. for 4 h, T2 cells were incubated for 1 h, in serum-free RPMI containing Brefeldin A (10 μg/ml), an inhibitor of the transport of secretory and lysosomal proteins [G. J. Strous et al., 1993]. After 3 washes, T2 cells were incubated for 3 h in serum-free RPMI at 37° C. Binding was then measured by FACS and after 4 h incubation. Percentage of Residual Binding (% RB) was calculated as follows: […]

HLA-A*0201 [3] = target: T1, HLA-A*0201; experiment: iScore calculation (iTOPIA system software); conditions: multiparametric score of binding, off-rate and affinity
HLA-A*0201 [4] = target: T1, HLA-A*0201; experiment: biochemical; format: binding
[5] = target: T2, HLA A*0201 on CEM.T2 cell line; experiment: Cellular binding assay, HLA stabilization on CEM.T2 cells; format: cell-based; conditions: for CEM.T2 % Binding: 100 μM peptide, 37° C. for 4 h, FACS anti HLA-A2, relative to HBV positive control peptide
Protocol: The CEM.T2 cell line (T2) is defective in the processing of proteins for presentation by MHC class 1 molecules. This cell line expresses HLA A*0201 but is deficient for TAP transporter. T2 is classically used to assess the Peptide/HLA-A*0201 Complex Stability[H. W. Nijman et al., 1993]
For HLA-A2*0201 stabilization, T2 cells (2×10^5/well) were incubated in serum-free RPMI (Gibco®-France) with 100 μM of selected peptide, at 37° C. for 4 h. Cells were washed two times with PBS supplemented with 1% BSA and stained with fluorescein isothiocyanate-conjugated anti HLA-A2 (Clone BB7.2) (BD Bioscience Pharmingen-France-) at 4° C. for 45 min. After 3 washes, cells were fixed in PBS supplemented with 2% paraformaldehyde and analyzed by FACS (FACScan, BD Bioscience). The percentage of peptide binding was calculated as follows: % Binding={(MFI peptide sample−MFI Neg control)/(MFI Pos control−MFI Neg control)}×100
Negative control was done without peptide.

[6] = peptide concentration giving 50% of optimal binding, 10^−4 to 10^−9 M, 21° C. for 18 h, read-out: Affinity (ED50)

| Compound | % Binding (HLA-A*0201 [1]) [%] | CEM.T2 % Residual Binding [2] [%] | iScore (HLA-A*0201 [3]) | EC50 (HLA-A*0201 [4]; [6]) [nM] | CEM.T2 % Binding [5] [%] | HLA-A*0201 class I level on T2 cells ([5]; flow cytometry, FIG. 3A and 3B) | EC50 (HLA-A*0201 [4]; FIG. 2A, peptide concentration 10^−4 to 10^−9 M, read-out: estimated dose to reach 50% maximal binding (ED50)) [nM] |
| --- | --- | --- | --- | --- | --- | --- | --- |
| CC(C)C[C@H](NC(=O)[C@@H](NC(=O)[C@H](CO)NC(=O)[C@H](Cc1ccc(O)cc1)NC(=O)[C@H](CO)NC(=O)[C@@H](N)CCCNC(=N)N)[C@@H](C)O)C(=O)N[C@H](C(=O)N[C@H](C(=O)N[C@H](C(=O)O)C(C)C)[C@@H](C)O)[C@@H](C)O [Peptide 443] (H-RSYSTLTTV-OH; N-terminus and C-terminus assumed) | 68 | 0 | 0.521 | 300 | 37 |  |  |
| CC(C)[C@H](NC(=O)CNC(=O)[C@@H](NC(=O)[C@@H](NC(=O)[C@@H](NC(=O)[C@@H](NC(=O)[C@H](CO)NC(=O)[C@H](C)NC(=O)[C@@H](N)CO)C(C)C)C(C)C)C(C)C)C(C)C)C(=O)O [Peptide 347] (H-SASVVVVGV-OH; N-terminus and C-terminus assumed) | 64 | 0 | 0.708 | 200 | 40 |  |  |
| CC[C@H](C)[C@H](NC(=O)[C@@H](NC(=O)CNC(=O)[C@@H](NC(=O)[C@@H](NC(=O)[C@@H](N)C(C)C)C(C)C)C(C)C)C(C)C)C(=O)N[C@@H](C)C(=O)N[C@@H](C)C(=O)N[C@@H](CC(C)C)C(=O)O [Peptide 351, VVVGVIAAL] (H-VVVGVIAAL-OH; N-terminus and C-terminus assumed) | 58 |  | 0.784 | 30 |  |  |  |
| CC(C)C[C@H](NC(=O)[C@H](C)N)C(=O)N[C@@H](CC(C)C)C(=O)N[C@@H](Cc1ccccc1)C(=O)N[C@@H](CS)C(=O)N[C@@H](CC(C)C)C(=O)N[C@@H](CC(C)C)C(=O)N[C@H](C(=O)N[C@H](C(=O)O)C(C)C)C(C)C [Peptide 358] (H-ALLFCLLVV-OH; N-terminus and C-terminus assumed) | 53 | 26 | 0.71 | 200 | 26 |  |  |
| CC[C@H](C)[C@H](NC(=O)[C@@H](NC(=O)CN)C(C)C)C(=O)N[C@@H](C)C(=O)N[C@@H](C)C(=O)N[C@@H](CC(C)C)C(=O)N[C@@H](CC(C)C)C(=O)N[C@@H](Cc1ccccc1)C(=O)N[C@@H](CS)C(=O)O [Peptide 354] (H-GVIAALLFC-OH; N-terminus and C-terminus assumed) | 61 | 0 | 0.845 | 90 | 10 |  |  |
| CC(C)C[C@H](NC(=O)[C@H](CCCNC(=N)N)NC(=O)[C@H](C)NC(=O)[C@H](CCC(N)=O)NC(=O)[C@@H](N)Cc1ccccc1)C(=O)N[C@@H](CCCNC(=N)N)C(=O)N[C@@H](CC(C)C)C(=O)N[C@@H](CCCNC(=N)N)C(=O)N[C@H](C(=O)O)C(C)C [Peptide 137] (H-FQARLRLRV-OH; N-terminus and C-terminus assumed) | 69 | 72 | 0.66 |  | 30 |  |  |
| CC[C@H](C)[C@H](NC(=O)[C@H](Cc1c[nH]cn1)NC(=O)[C@H](Cc1c[nH]c2ccccc12)NC(=O)[C@H](CC(C)C)NC(=O)[C@H](CC(N)=O)NC(=O)[C@H](CCC(N)=O)NC(=O)[C@@H](N)CC(=O)O)C(=O)NCC(=O)N[C@@H](CCCNC(=N)N)C(=O)O [Peptide 255] | 62 | 0 | 0.539 | 500 | 6 |  |  |
| CC[C@H](C)[C@H](NC(=O)[C@@H](N)Cc1c[nH]cn1)C(=O)N[C@@H](CC(C)C)C(=O)N[C@@H](Cc1c[nH]cn1)C(=O)N[C@H](C(=O)N[C@@H](CO)C(=O)N[C@@H](Cc1ccccc1)C(=O)N[C@@H](CC(C)C)C(=O)N[C@@H](C)C(=O)O)C(C)C [Peptide 238] (H-HILHVSFLA-OH; N-terminus and C-terminus assumed) | 87 | 66 | 1.426 | 60 | 37 |  |  |
| CC(C)[C@H](NC(=O)[C@@H](NC(=O)[C@@H](NC(=O)[C@@H](NC(=O)[C@@H](NC(=O)[C@H](CC(=O)O)NC(=O)[C@H](CO)NC(=O)[C@@H](NC(=O)CN)[C@@H](C)O)C(C)C)C(C)C)[C@@H](C)O)C(C)C)C(=O)O [Peptide 35] (H-GTSDVVTVV-OH; N-terminus and C-terminus assumed) | 63 | 0 | 0.539 | 300 | 60 |  |  |
| CC[C@H](C)[C@H](NC(=O)[C@@H](N)C(C)C)C(=O)N[C@@H](C)C(=O)N[C@@H](C)C(=O)N[C@@H](CC(C)C)C(=O)N[C@@H](CC(C)C)C(=O)N[C@@H](Cc1ccccc1)C(=O)N[C@@H](CS)C(=O)N[C@@H](CC(C)C)C(=O)O [Peptide 355] (H-VIAALLFCL-OH; N-terminus and C-terminus assumed) | 59 | 24 | 0.888 | 30 | 18 |  |  |
| 122: nectin4 nonapeptide with a low iScore; the number represents where the peptide starts in the protein sequence (EGEYECRVS; UniProt Q96NY8 122-130, looked up, fragment) [Peptide 122] |  |  | low |  |  | does not increase HLA level on T2 cells |  |
| CC(C)C[C@H](NC(=O)CNC(=O)[C@H](Cc1ccc(O)cc1)NC(=O)[C@H](CCCCN)NC(=O)[C@H](CO)NC(=O)[C@H](Cc1c[nH]cn1)NC(=O)[C@H](CC(C)C)NC(=O)[C@H](CC(C)C)NC(=O)[C@H](C)N)C(=O)O [Peptide 80] (H-ALLHSKYGL-OH; N-terminus and C-terminus assumed) | 87 |  | 0.815 | 1000 |  |  | ~100 |
